What was measured:
BAZ2B bromodomain = target: T1, BAZ2B bromodomain (Homo sapiens, UniProt Q9UIF8); test: AlphaScreen binding competition, BAZ2B bromodomain; details: for % residual binding BAZ2B (100 μM): compound at 100 μM
T1 construct: BAZ2A and BAZ2B bromodomains were produced; made in house
T1 sequence (Q9UIF8 2060-2164 limits assumed): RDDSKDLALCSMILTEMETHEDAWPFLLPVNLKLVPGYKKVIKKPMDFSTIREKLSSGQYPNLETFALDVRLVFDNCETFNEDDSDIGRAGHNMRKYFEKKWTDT
From the text: (§1) BAZ2A and BAZ2B bromodomains were produced and their activity evaluated by AlphaScreen as previously reported (Dalle Vedove et al., [2018]; Spiliotopoulos et al., [2017]). BAZ2A bromodomain was crystallized as detailed in an earlier work (Spiliotopoulos et al., [2017]). Diffraction data were collected at the Elettra Synchrotron Light Source (Trieste, Italy), XRD1 and XRD2 beamlines, and the European Synchrotron Radiation Facility (ESRF, Grenoble, France), ID30A‐1/MASSIF‐1 beamline. Data were processed and structures were solved as described elsewhere (Dalle Vedove et al., [2018]). Chemical synthesis of compounds UP39 and UZH23 has already been reported (Unzue et al., [2016]; Zhu et al., [2018]). A detailed description of cell culture methods and ITC protocol is provided in the Supporting Information.
(§2) Figure S3. AlphaScreen competition binding assay for compounds UP39 and UZH23. The specific binding to the acetylated peptide relative to the control DMSO (y-axis) is plotted against the corresponding compound concentration in µM in log10 scale (x-axis).
(§3) (1 picture or pasted object on this page, not shown here)

BAZ2A bromodomain [1] = target: T2, BAZ2A bromodomain (Homo sapiens, UniProt Q9UIF9); test: AlphaScreen binding competition, BAZ2A bromodomain; details: for % residual binding BAZ2A (100 μM): compound at 100 μM
T2 construct: BAZ2A and BAZ2B bromodomains were produced; made in house
T2 sequence (Q9UIF9 1793-1897 limits assumed): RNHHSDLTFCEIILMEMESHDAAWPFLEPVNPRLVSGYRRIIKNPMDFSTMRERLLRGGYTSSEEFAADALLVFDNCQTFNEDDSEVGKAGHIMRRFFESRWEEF
From the text: as §1, §2, §3

BAZ2A bromodomain [2] = target: T2, BAZ2A bromodomain; test: Screening by co‐crystallization with BAZ2A bromodomain; format: binding
From the text: as §1

PCAF = target: PCAF; parameters: method as in Humphreys et al., [2017]; details: ref Humphreys et al., [2017]; read-out: K D PCAF bromodomain; cited from earlier work
BRD1 = target: BRD1; parameters: method as in Humphreys et al., [2017]; details: lower potency than on PCAF/GCN5; ref Humphreys et al., [2017]; read-out: potency on BRD1 bromodomain; cited from earlier work
BAZ2A bromodomain [3] = target: T2, BAZ2A bromodomain; test: Isothermal titration calorimetry (ITC) on BAZ2A; format: binding
From the text: It is worth noticing however that these values may be slightly overestimated. The presence of 0.25% DMSO in the ITC experiments leads to less favorable K D values as DMSO competes for binding to the conserved Asn (Lolli & Battistutta, [2013]; Navratilova et al., [2016]). […] Indeed, the change in sign of the entropic term observed for TP‐238 binding to BAZ2A (compared to BPTF and CECR2) closely resembles the effect reported for crotonyllysine binding to the TAF1 bromodomain (compared to Kac), also displacing an additional water molecule from the binding pocket (Flynn et al., [2015]). […]
Isothermal Titration Calorimetry
ITC experiments were performed using an MicroCal PEAQ-IT C microcalorimeter (Malvern Panalytical, UK) at 25°C with a stirring speed of 750 rpm in 20mM Tris pH 7. 8, 0. 2 M NaCl, 0. 2 mM TCEP and 0. 25% DMSO. For each experiment, one 0. 4 µl injection followed by eighteen 2 µl injections have been performed, with 150 seconds separating each injectio n. The inhibitors were tested at 70 µM in the cell with His -Baz2A in the syringe at 1 mM. A blank run with only the buffer was carried out (Suppl. Fig. S6). Data analysis was done with PE A Q-ITC Analysis software , fitting the curve with the ‘one site’ model.

GCN5 = target: GCN5; parameters: method as in Humphreys et al., [2017]; details: ref Humphreys et al., [2017]; read-out: K D GCN5 bromodomain; cited from earlier work
BRPF3 = target: BRPF3; parameters: method as in Humphreys et al., [2017]; details: lower potency than on PCAF/GCN5; ref Humphreys et al., [2017]; read-out: potency on BRPF3 bromodomain; cited from earlier work
BRPF1 = target: BRPF1; parameters: method as in Humphreys et al., [2017]; details: lower potency than on PCAF/GCN5; ref Humphreys et al., [2017]; read-out: potency on BRPF1 bromodomain; cited from earlier work
[4] = tested on: first bromodomain of BRD4; parameters: method as in Hay et al., [2014]; Picaud et al., [2015]; details: ref Hay et al., [2014]; Picaud et al., [2015]; cited from earlier work

| SMILES | IC50 (BAZ2B bromodomain; AlphaScreen) [µM] | % residual binding BAZ2B (100 μM) (BAZ2B bromodomain) [%] | IC50 (BAZ2A bromodomain [1]; AlphaScreen) [µM] | % residual binding BAZ2A (100 μM) (BAZ2A bromodomain [1]) [%] | located in BAZ2A Kac pocket by co‐crystallization (BAZ2A bromodomain [2]) | Kd (PCAF) [µM] | Kd (BRD1) [µM] | Kd (BAZ2A bromodomain [3]; 25°C, 0.25% DMSO, read-out: K D BAZ2A) [µM] | TΔS (BAZ2A bromodomain [3]; BAZ2A) [kcal/mol] | ΔG (BAZ2A bromodomain [3]; BAZ2A) [kcal/mol] | ΔH (BAZ2A bromodomain [3]; BAZ2A) [kcal/mol] | N (sites) (BAZ2A bromodomain [3]; BAZ2A, one site model) | Kd (GCN5) [µM] | Kd (BRPF3) [µM] | Kd (BRPF1) [µM] | off‐target activity on the first bromodomain of BRD4 [4] |
| --- | --- | --- | --- | --- | --- | --- | --- | --- | --- | --- | --- | --- | --- | --- | --- | --- |
| CC(=O)n1cc(-c2c(C)nn3c2OCC3)c2ccccc21 [UZH23] | > 100 | 62 ± 7 | 86 ± 9 | 52 ± 9 | – | – | – | – | – | – | – | – | – | – | – | – |
| CN1C[C@H](Nc2cnn(C)c(=O)c2Br)C[C@H](c2ccccc2)C1 [GSK4027] | – | 70 ± 3 | – | 77 ± 5 | located in the BAZ2A Kac pocket | 0.0014 | 0.1 to 0.15 | 165 ± 8 | -5.8 | -5.2 | -11.0 ± 0.3 | 1 | 0.0014 | 0.1 to 0.15 | 0.1 to 0.15 | – |
| COc1ccc(CCc2nc3cc(-c4c(C)noc4C)ccc3n2C[C@H](C)N2CCOCC2)cc1Cl [SGC‐CBP30] | – | 92 ± 6 | – | 95 ± 4 | inability to act as BAZ2A inhibitors | – | – | – | – | – | – | – | – | – | – | weak off‐target activity |

From PMC10464297, “Reevaluation of bromodomain ligands targeting BAZ2A” (Protein Science : A Publication of the Protein Society, 2023)
